These results are taken from patent US20210244791A1, “APPLICATION OF PEDF-DERIVED SHORT PEPTIDES IN TENDON HEALING” (BRIM Biotechnology, Inc., priority 2018, published 2021).

The test system of one assay is tendon rupture. Conditions: rat model; previous study; cited from earlier work.
Assay [1] concerns cultured tendon stem/progenitor cells (TSPC). Conditions: peptide added in culture medium; previous study; cited from earlier work.
The subject of a further assay is Primary rabbit TSPC. Briefly: TSPC cell proliferation assay (fluorometric kit). The class given is cell-based. Conditions: 10 μM peptide, low serum media, PDSP solvent (DMSO) set as 100%, mean±SE of three experiments. How it is done: Primary rabbit TSPC were cultured to near-confluence in a 75T cell culture flask and then verified by immunostaining of a TSPC marker, nucleostemin (>98%; green color). Nuclei were stained with Hoechst 33258 (blue color) and visualized by an epifluorescence microscopy. The nucleostemine-positive TSPC were treated with 10 μM 29-mer or its variants for 24 h. The numbers of TSPC after 24-h expansion were detected with a cell proliferation assay kit (BioVision; catalog number: K307). The TSPC treated with PDSP solvent was set as 100%. Results are expressed as mean±SE of three independent experiments.
(§1) Achilles tendons from New Zealand White rabbits (6-8 months old, 3.0-4.0 kg) were used in this study. Achilles tendons were washed two times with sterile phosphate-buffered saline (PBS) containing 50 μg/ml gentamicin. The tendon and tendon sheath were cut into small pieces (1-2 mm^3). Each 100 mg of fragment was then digested in a solution containing 3 mg/ml of type I collagenase and 4 mg/ml of dispase in 1 ml balance salt solution (BSS; Alcone) at 37° C. for 4 hours. The digested tissues were washed three times with PBS and collected by centrifugation (800 g for 10 min). The digested tissues were placed in tissue-culture plates (Falcon Labware; NJ, USA) and resuspended in high-glucose DMEM supplemented with 10% FBS and 50 μg/ml gentamycin, and maintained at 37° C. with 5% CO2. After 5 days, the medium was changed to remove the loosened tissue residues. Subsequently, tendon cells were incubated with 10% FBS medium for 2 days, and then cultured with a basal medium (2% FBS, 1% ITSE, 300 μg/ml L-glutamine, 1% antibiotic-antimicotic solutions) for further 10 days. Culture medium was changed every 3 days. For passage, tendon cells were harvested with 0.25% trypsin/EDTA, cell counting by haemocytometer, approximately 5×10^3 cells were seeded in each well of a 96-well cell culture plate or 2×10^5 cells were seeded in each well of a 6-well cell culture plate for 24 h. These expanded tendon cells were then treated with 10 μM 29-mer or its variants in fresh basal medium for further 24 h and subjected to cell proliferation assay and western blot analysis, respectively.
Cell Proliferation Assay Kit (Fluorometric) was purchased from BioVision (Catalog #: K307) and used to evaluate cell proliferation according to the manufacturer's recommendations. The fluorescence was read at 480 nm for excitation and 538 nm for emission on a SPECTRAmax GEMINI XS fluorescence microplate spectrophotometer (Molecular Devices, Sunnyvale, Calif., USA).
Rabbit TSPC isolation was described above. TSPC in low serum media were treated with 10 μM of one of the 29-mer variants for 24 h. Cell proliferation was examined by a cell proliferation kit based on a kit provided nuclear dye that specifically binds to nucleic acid in the cell and generates green fluorescence.

For a further assay, the system named is injured Achilles tendon. Briefly: Rat model of Achilles tendon injury, histology (H&E) and histopathological score. The class given is in vivo. As to conditions: 1 week postoperative; subcutaneous 150 μl alginate gel with 100 μM peptide. The source says:
Representative micrographs of the histopathological analysis by H&E staining. H&E-stained sections in higher magnification show uninjured tendon tissue with a relative scarcity of cells among the collagen fibers.
(A) Representative H&E-stained longitudinal sections in higher magnification show the nuclei morphologies in uninjured tendon tissue and injured tendon treated with vehicle/alginate and 29-mer/alginate for 1 week. (B) Histopathological scores. Total scores were determining by fiber structure, fiber arrangement, rounding of the nuclei, resident cell density and inflammation (infiltration of inflammatory cells, neovascularization and fatty deposits). Data are reported as mean±SE. *P<0.0005 versus vehicle/alginate-treated tendon; ^#P<0.05 versus 29-mer/alginate-treated tendon.
To investigate the effects of the 29-mer peptide on tendon healing, a rat model of Achilles tendon injury was established as reported by Orhan et al. (The effect of extracorporeal shock waves on a rat model of injury to tendon Achilles. A histological and biomechanical study. J. Bone Joint Surg. Br. 2004;.86(4):.613-618). Adult 10-week-old male Sprague-Dawley rats (initial body weight=312±11 g) were anesthetized by an intraperitoneal injection of xylazine (10 mg/kg). Then, the left tendo Achilles injury was created by full-thickness insertion of an 18-G needle through tendo Achilles 1 cm proximal to the calcaneum attachment site. This created a horizontal wound that was flanked by intact tendon tissue to prevent the retraction of severed ends. The skin incision was closed after the wound was irrigated with sterile saline. Treatments were applied to area around the tendon lesion by subcutaneous injection with 150 μl of alginate gel mixed with 100 μM 29-mer or DMSO vehicle (six rats per experimental condition).
The tendon and surrounding soft tissue were dissected. Specimens were fixed in a 4% paraformaldehyde (PFA) solution and then were embedded in paraffin blocks. Sections (5 μm in thickness) were longitudinally cut and stained with hematoxylin and eosin (H&E) or used for immunohistochemical examination. 36 sections per tendon were carefully prepared so as to include the most severely degenerated area. Images were captured using a Nikon Eclipse 80i microscope (Nikon Corporation, Tokyo, Japan) equipped with a Leica DC 500 camera (Leica Microsystems, Wetzlar, Germany). Four sections of each sample containing injured tendon tissues were selected and evaluated by two blinded observers to assess the tendon morphology according to a modified semi-quantitative grading score from 0 to 3 proposed by Chen et al. (Tendon derived stem cells promote platelet-rich plasma healing in collagenase-induced rat Achilles tendinopathy. Cell Physiol. Biochem., 2014; 34(6): 2153-68). The scores analyzed the fiber structure (0-3), fiber arrangement (0-3), rounding of the nuclei (0-3), resident cell density (0-3), and inflammation (0-3; infiltration of inflammatory cells, neovascularization and fatty deposits). According to this grading system, a perfectly normal tendon obtained a score of 0, whereas a score of 15 was assigned to maximally abnormal tendons.
To investigate the therapeutic effect of the 29-mer peptide on injured tendon, a rat model of Achilles tendon injury was established by full-thickness insertion of an 18-G needle through the tendon Achilles. We delivered the 29-mer in a 150 μl alginate gel, which releases 90% loaded 29-mer in 5 days as described in a previous protocol (Ho et al., PEDF-derived peptide promotes skeletal muscle regeneration through its mitogenic effect on muscle progenitor cells. Am J Physiol. Cell Physiol. 2015 Aug. 1; 309(3): C159-68).

The test system of another assay is cyclin D1. Briefly: Western blot analysis of cyclin D1 expression in TSPC. Type of assay: cell-based, rabbit. As to conditions: TSPC treated 24 h; compared with solvent-treated cells; normalized to β-actin. The procedure:
Primary rabbit TSPC were treated with 10NM 29-mer or its variants for 24 h. Representative blots (A) and densitometric analysis with the SD (B) from three independent experiments are shown. Cyclin D1 expression was normalized to ([…]. *P<0.01 vs. solvent-treated cells. ^#P<0.05 vs. 29-mer-treated cells.
as §1
Cell lysis, SDS-PAGE, and antibodies used for immunoblotting were performed as described (Ho et al., 15-deoxy-Delta(12,14)-prostaglandin J2 induces vascular endothelial cell apoptosis through the sequential activation of MAPKS and p53. J Biol. Chem., 2008; 283(44): 30273-30288). The band intensity in immunoblot was evaluated with a Model GS-700 imaging densitometer (Bio-Rad Laboratories, Hercules, Calif.) and analyzed using Labworks 4.0 software.
However, the 29-mer effect on cyclin D1 protein induction was almost abolished by alanine/glycine replacement at residue S93, A96, Q98, 1103, 1104 and R106, respectively (1.3±0.1, 1.5±0.3, 1.3±0.1, 0.9±0.1, 1.3±0.2, and 1.0±0.3). […] The data also imply that the PDSP at positions Ser93, Ala96, Gln98, Ile103, Ile104, and Arg106 are important for sustaining the PDSP effect on induction of TSPC proliferation.

For the substance “20-mer: PEDF-derived short peptide, Ser93-Leu112 (SLGAEQRTESIIHRALYYDL; UniProt P36955 93-112, looked up, fragment)”, the “healing of tendon rupture” value in the assay on tendon rupture is listed as “facilitated healing of tendon rupture”. Besides, the “induction of cultured TSPC proliferation” value in assay [1] was “able to induce cultured tendon stem/progenitor cells (TSPC) proliferation”.

On to “R99A: 29-mer variant with single alanine alteration at residue 99 (SLGAEQATESIIHRALYYDLISSPDIHGT; UniProt P36955 93-121, looked up, variant R99A)”, for which the “TSPC proliferation (numbers of TSPC after 24-h expansion)” value with Primary rabbit TSPC is 116±7.0%.

On to “R106A: 29-mer variant with single alanine replacement at arginine-106 (SLGAEQRTESIIHAALYYDLISSPDIHGT; UniProt P36955 93-121, looked up, variant R106A)”, for which, in the assay on Primary rabbit TSPC, the “TSPC proliferation (numbers of TSPC after 24-h expansion)” value was found to be 106±3.5%. In addition, the “histological appearance of treated tendon (H&E staining)” value (shortened to “histological appearance”) with injured Achilles tendon was “loss of fiber organization and accompanied a marked increase in inflammatory matrix, fatty deposits, and vascularity”. The “induction of the cyclin D1 protein” value in the assay with cyclin D1 is on record as 1.0±0.3 fold.

In the case of “P116A: 29-mer variant with single alanine alteration at residue 116 (SLGAEQRTESIIHRALYYDLISSADIHGT; UniProt P36955 93-121, looked up, variant P116A)”, the “TSPC proliferation (numbers of TSPC after 24-h expansion)” value in the assay on Primary rabbit TSPC is 115±3.7%.

With “1104A: 29-mer variant with single alanine replacement at isoleucine-104 (SLGAEQRTESIAHRALYYDLISSPDIHGT; UniProt P36955 93-121, looked up, variant I104A)”, the “TSPC proliferation (numbers of TSPC after 24-h expansion)” value in the assay with Primary rabbit TSPC worked out at 112±1.7%. For the same substance, in the assay with injured Achilles tendon, the “histological appearance” value is “loss of fiber organization and accompanied a marked increase in inflammatory matrix, fatty deposits, and vascularity”. Moreover, the “induction of the cyclin D1 protein” value in the assay on cyclin D1 came to 1.3±0.2 fold.

Turning to “Q98A: 29-mer variant with single alanine replacement at glutamine-98 (SLGAEARTESIIHRALYYDLISSPDIHGT; UniProt P36955 93-121, looked up, variant Q98A)”, in the assay with Primary rabbit TSPC, the “TSPC proliferation (numbers of TSPC after 24-h expansion)” value was determined as 106±5.4%. Further, the “histological appearance” value in the assay on injured Achilles tendon was “loss of fiber organization and accompanied a marked increase in inflammatory matrix, fatty deposits, and vascularity”. Further, in the assay on cyclin D1, the “induction of the cyclin D1 protein” value came out at 1.3±0.1 fold.

Regarding “24-mer: PEDF-derived short peptide, Ser93-Pro (SLGAEQRTESIIHRALYYDLISSP; UniProt P36955 93-116, looked up, fragment)”, in the assay with tendon rupture, the “healing of tendon rupture” value is “facilitated healing of tendon rupture”. Besides, the “induction of cultured TSPC proliferation” value in assay [1] is reported as “able to induce cultured tendon stem/progenitor cells (TSPC) proliferation”.

On to “1103A: 29-mer variant with single alanine replacement at isoleucine-103 (SLGAEQRTESAIHRALYYDLISSPDIHGT; UniProt P36955 93-121, looked up, variant I103A)”, for which the “TSPC proliferation (numbers of TSPC after 24-h expansion)” value in the assay with Primary rabbit TSPC was 106±5.3%. The “histological appearance” value in the assay on injured Achilles tendon was “loss of fiber organization and accompanied a marked increase in inflammatory matrix, fatty deposits, and vascularity”. In the assay with cyclin D1, the “induction of the cyclin D1 protein” value is given as 0.9±0.1 fold.

“A96G: 29-mer variant with single glycine alteration at alanine-96 (SLGGEQRTESIIHRALYYDLISSPDIHGT; UniProt P36955 93-121, looked up, variant A96G)”: the “TSPC proliferation (numbers of TSPC after 24-h expansion)” value in the assay on Primary rabbit TSPC worked out at 102±4.0%. Moreover, the “histological appearance” value with injured Achilles tendon is “loss of fiber organization and accompanied a marked increase in inflammatory matrix, fatty deposits, and vascularity”. Further, the “induction of the cyclin D1 protein” value in the assay with cyclin D1 came to 1.5±0.3 fold.

As for “A107G: 29-mer variant with single glycine alteration at residue 107 (SLGAEQRTESIIHRGLYYDLISSPDIHGT; UniProt P36955 93-121, looked up, variant A107G)”, in the assay with Primary rabbit TSPC, the “TSPC proliferation (numbers of TSPC after 24-h expansion)” value is given as 117±3.8%.
